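Interpolation was linear, between the two tested concentrations surrounding the appropriate level; five concentrations were tested over 48 hours in 96-well plates. GI50: concentration for 50% inhibition of growth.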 Activity calls are given as the source filed them. No stated cut-off is given here; in the data, active = GI50 up to about 1.1 µM and inactive = higher.
Key:
Experiment in all cases: inhibition of tumour cell growth, NCI panel, 48 h
LOX IMVI = test system: LOX IMVI
HOP-92 = test system: HOP-92
RPMI-8226 = test system: RPMI-8226
K562 = test system: K562
MOLT-4 = test system: MOLT-4
SF-295 = test system: SF-295
SNB-75 = test system: SNB-75
IGROV-1 = test system: IGROV-1
NCI-H23 = test system: NCI-H23
OVCAR-4 = test system: OVCAR-4
786-0 = test system: 786-0
HOP-62 = test system: HOP-62
COLO 205 = test system: COLO 205
ACHN = test system: ACHN
Malme-3M = test system: Malme-3M
NCI-H460 = test system: NCI-H460
OVCAR-5 = test system: OVCAR-5

Measured: GI50

Cc1cccc(C(C)(C)C)c1NC(=O)C(=O)C(c1cnc2ccccc2n1)[N+](=O)[O-] (stereo not drawn)
inactive: LOX IMVI > 100 µM | HOP-92 > 100 µM | RPMI-8226 60.3 µM | K562 > 100 µM | MOLT-4 58.1 µM | SF-295 > 100 µM | SNB-75 > 100 µM | IGROV-1 > 100 µM | NCI-H23 > 100 µM | OVCAR-4 > 100 µM | 786-0 > 100 µM | HOP-62 > 100 µM | COLO 205 > 100 µM | ACHN > 100 µM | Malme-3M > 100 µM | NCI-H460 62.2 µM | OVCAR-5 > 100 µM

Cc1ccc(SCC(=O)C2=C(O)CCCC2=O)cc1
inactive: LOX IMVI > 100 µM | HOP-92 > 100 µM | RPMI-8226 > 100 µM | K562 > 100 µM | MOLT-4 > 100 µM | SF-295 > 100 µM | SNB-75 > 100 µM | IGROV-1 > 100 µM | NCI-H23 > 100 µM | OVCAR-4 > 100 µM | 786-0 > 100 µM | HOP-62 > 100 µM | COLO 205 > 100 µM | ACHN > 100 µM | Malme-3M > 100 µM | NCI-H460 > 100 µM | OVCAR-5 > 100 µM

CC1=N/C(=C\c2ccc(N)cc2)C(=O)N1Nc1nnc(NN2C(=O)/C(=C/c3ccc(N)cc3)N=C2C)c2ccccc12
inactive: LOX IMVI 41.9 µM | HOP-92 > 100 µM | RPMI-8226 26.4 µM | K562 27.4 µM | MOLT-4 35.2 µM | SF-295 26.6 µM | SNB-75 5.05 µM | IGROV-1 85.9 µM | NCI-H23 > 100 µM | OVCAR-4 33 µM | 786-0 32.5 µM | HOP-62 23.1 µM | COLO 205 83.6 µM | ACHN > 100 µM | NCI-H460 > 100 µM | OVCAR-5 > 100 µM

O=C1OC2(c3ccccc3Oc3ccccc32)c2ccccc21
inactive: LOX IMVI > 100 µM | HOP-92 > 100 µM | RPMI-8226 > 100 µM | K562 50.8 µM | MOLT-4 > 100 µM | SF-295 > 100 µM | SNB-75 > 100 µM | IGROV-1 > 100 µM | NCI-H23 > 100 µM | OVCAR-4 > 100 µM | 786-0 > 100 µM | HOP-62 > 100 µM | COLO 205 > 100 µM | ACHN > 100 µM | Malme-3M > 100 µM | NCI-H460 > 100 µM | OVCAR-5 > 100 µM

CN(/N=C/c1cccc2cccnc12)c1c([N+](=O)[O-])cc([N+](=O)[O-])cc1[N+](=O)[O-]
inactive: LOX IMVI 45.3 µM | HOP-92 > 100 µM | RPMI-8226 > 100 µM | K562 3.56 µM | MOLT-4 11.4 µM | SF-295 > 100 µM | SNB-75 > 100 µM | IGROV-1 > 100 µM | NCI-H23 > 100 µM | OVCAR-4 > 100 µM | 786-0 > 100 µM | HOP-62 > 100 µM | COLO 205 > 100 µM | ACHN > 100 µM | Malme-3M > 100 µM | NCI-H460 > 100 µM | OVCAR-5 > 100 µM

CN(C)c1n/c(=N/c2ncn[nH]2)ss1
inactive: LOX IMVI > 100 µM | HOP-92 > 100 µM | RPMI-8226 > 100 µM | K562 > 100 µM | MOLT-4 > 100 µM | SF-295 > 100 µM | SNB-75 > 100 µM | IGROV-1 > 100 µM | NCI-H23 > 100 µM | OVCAR-4 > 100 µM | 786-0 > 100 µM | HOP-62 > 100 µM | ACHN > 100 µM | Malme-3M > 100 µM | NCI-H460 > 100 µM | OVCAR-5 > 100 µM

CN1CCC(=O)/C(=C/c2ccccc2)C1
inactive: LOX IMVI 5.58 µM | HOP-92 17.5 µM | RPMI-8226 2.86 µM | K562 5.24 µM | MOLT-4 7.74 µM | SF-295 15.4 µM | SNB-75 6.85 µM | IGROV-1 16 µM | NCI-H23 17.5 µM | OVCAR-4 17.9 µM | 786-0 12.5 µM | HOP-62 20.6 µM | COLO 205 13.7 µM | ACHN 17.9 µM | Malme-3M 19.5 µM | NCI-H460 16.3 µM | OVCAR-5 15.7 µM

O=C(CCn1[nH]c(=O)c(Cl)c(Cl)c1=O)NOCCCc1ccccc1
inactive: LOX IMVI > 100 µM | HOP-92 > 100 µM | RPMI-8226 > 100 µM | K562 > 100 µM | MOLT-4 > 100 µM | SF-295 > 100 µM | SNB-75 > 100 µM | IGROV-1 > 100 µM | NCI-H23 > 100 µM | OVCAR-4 > 100 µM | 786-0 > 100 µM | HOP-62 > 100 µM | ACHN > 100 µM | Malme-3M > 100 µM | NCI-H460 > 100 µM | OVCAR-5 > 100 µM

C/C(CCn1[nH]c(=O)ccc1=O)=N\Nc1ccc([N+](=O)[O-])cc1[N+](=O)[O-]
inactive: LOX IMVI 26.8 µM | HOP-92 > 100 µM | RPMI-8226 > 100 µM | K562 20.6 µM | MOLT-4 > 100 µM | SF-295 20.5 µM | SNB-75 > 100 µM | IGROV-1 > 100 µM | NCI-H23 > 100 µM | OVCAR-4 > 100 µM | 786-0 > 100 µM | HOP-62 > 100 µM | ACHN 90.8 µM | Malme-3M > 100 µM | NCI-H460 37 µM | OVCAR-5 > 100 µM

CCOP1(=O)C=C(C)C(Cl)=C(C)C1 (stereo not drawn)
inactive: LOX IMVI 20.4 µM | HOP-92 19.6 µM | RPMI-8226 18.9 µM | K562 23.4 µM | MOLT-4 20.4 µM | SF-295 47.1 µM | SNB-75 15.4 µM | IGROV-1 56.1 µM | NCI-H23 22.9 µM | OVCAR-4 24.2 µM | 786-0 28.3 µM | HOP-62 > 100 µM | COLO 205 12 µM | ACHN 24.6 µM | NCI-H460 39.2 µM | OVCAR-5 43.9 µM

Clc1ccccc1CN1COc2c(ccc3cccnc23)C1
inactive: LOX IMVI 4.4 µM | HOP-92 2.36 µM | RPMI-8226 2.73 µM | K562 2.12 µM | MOLT-4 2.22 µM | SF-295 3.2 µM | SNB-75 7.91 µM | IGROV-1 3.5 µM | NCI-H23 1.62 µM | OVCAR-4 3.6 µM | 786-0 4.28 µM | HOP-62 2.69 µM | COLO 205 8.38 µM | ACHN 3.72 µM | Malme-3M 4.78 µM | NCI-H460 5.19 µM | OVCAR-5 7.41 µM

O=C(O)c1ccc(C2COc3ccc(Cl)cc3C2)cc1 (stereo not drawn)
inactive: LOX IMVI > 100 µM | HOP-92 > 100 µM | RPMI-8226 > 100 µM | K562 > 100 µM | MOLT-4 > 100 µM | SF-295 > 100 µM | SNB-75 31.6 µM | IGROV-1 > 100 µM | NCI-H23 > 100 µM | 786-0 > 100 µM | HOP-62 > 100 µM | COLO 205 > 100 µM | ACHN > 100 µM | Malme-3M > 100 µM | NCI-H460 > 100 µM | OVCAR-5 > 100 µM

Source: ChEMBL document CHEMBL1201862, “PubChem BioAssay data set” (2004)
